Measured values from ChEMBL document CHEMBL1129924, “Synthesis and biological activity of cyclic analogues of MPPG and MCPG as metabotropic glutamate receptor antagonists” (Bioorg Med Chem Lett, 1997).

Columns and labels:
Type in all cases: functional
[1] = biological target: Metabotropic glutamate receptor 2 (Rattus norvegicus, UniProt P31421); assay: Antagonistic activity against Metabotropic glutamate receptor 2 was determined
[2] = biological target: Metabotropic glutamate receptor 6 (Rattus norvegicus, UniProt P35349); assay: Antagonistic activity against Metabotropic glutamate receptor 6 was determined at 1 mM; NE = No significant effect observed
Chain of Metabotropic glutamate receptor 6 (P35349 whole entry): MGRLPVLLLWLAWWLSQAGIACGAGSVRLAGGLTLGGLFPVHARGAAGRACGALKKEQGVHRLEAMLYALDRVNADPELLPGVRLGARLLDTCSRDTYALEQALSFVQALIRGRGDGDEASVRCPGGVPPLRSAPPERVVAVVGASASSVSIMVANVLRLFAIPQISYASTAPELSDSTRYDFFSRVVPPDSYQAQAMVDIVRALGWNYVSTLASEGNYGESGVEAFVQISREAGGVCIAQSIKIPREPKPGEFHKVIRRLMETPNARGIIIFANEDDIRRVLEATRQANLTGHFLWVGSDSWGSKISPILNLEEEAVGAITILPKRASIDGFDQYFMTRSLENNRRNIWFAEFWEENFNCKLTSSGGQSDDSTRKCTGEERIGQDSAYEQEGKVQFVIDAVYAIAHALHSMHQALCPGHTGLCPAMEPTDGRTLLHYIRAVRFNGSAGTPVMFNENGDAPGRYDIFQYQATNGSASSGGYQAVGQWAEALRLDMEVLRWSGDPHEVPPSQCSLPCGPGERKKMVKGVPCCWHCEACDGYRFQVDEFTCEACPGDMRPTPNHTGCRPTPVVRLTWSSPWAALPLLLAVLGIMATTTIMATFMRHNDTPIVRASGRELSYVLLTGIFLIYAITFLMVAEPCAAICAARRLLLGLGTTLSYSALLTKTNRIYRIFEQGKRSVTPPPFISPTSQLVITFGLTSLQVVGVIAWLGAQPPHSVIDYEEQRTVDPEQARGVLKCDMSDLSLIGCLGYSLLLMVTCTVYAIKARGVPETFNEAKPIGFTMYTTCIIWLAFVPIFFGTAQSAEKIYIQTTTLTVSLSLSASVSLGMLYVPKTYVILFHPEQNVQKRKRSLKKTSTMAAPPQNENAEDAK

[3] = biological target: T1, Metabotropic glutamate receptor 1 (Rattus norvegicus, UniProt P23385); assay: Antagonistic activity against Metabotropic glutamate receptor 1 was determined at 1 mM; NE = No significant effect observed
T1 sequence (P23385 whole entry): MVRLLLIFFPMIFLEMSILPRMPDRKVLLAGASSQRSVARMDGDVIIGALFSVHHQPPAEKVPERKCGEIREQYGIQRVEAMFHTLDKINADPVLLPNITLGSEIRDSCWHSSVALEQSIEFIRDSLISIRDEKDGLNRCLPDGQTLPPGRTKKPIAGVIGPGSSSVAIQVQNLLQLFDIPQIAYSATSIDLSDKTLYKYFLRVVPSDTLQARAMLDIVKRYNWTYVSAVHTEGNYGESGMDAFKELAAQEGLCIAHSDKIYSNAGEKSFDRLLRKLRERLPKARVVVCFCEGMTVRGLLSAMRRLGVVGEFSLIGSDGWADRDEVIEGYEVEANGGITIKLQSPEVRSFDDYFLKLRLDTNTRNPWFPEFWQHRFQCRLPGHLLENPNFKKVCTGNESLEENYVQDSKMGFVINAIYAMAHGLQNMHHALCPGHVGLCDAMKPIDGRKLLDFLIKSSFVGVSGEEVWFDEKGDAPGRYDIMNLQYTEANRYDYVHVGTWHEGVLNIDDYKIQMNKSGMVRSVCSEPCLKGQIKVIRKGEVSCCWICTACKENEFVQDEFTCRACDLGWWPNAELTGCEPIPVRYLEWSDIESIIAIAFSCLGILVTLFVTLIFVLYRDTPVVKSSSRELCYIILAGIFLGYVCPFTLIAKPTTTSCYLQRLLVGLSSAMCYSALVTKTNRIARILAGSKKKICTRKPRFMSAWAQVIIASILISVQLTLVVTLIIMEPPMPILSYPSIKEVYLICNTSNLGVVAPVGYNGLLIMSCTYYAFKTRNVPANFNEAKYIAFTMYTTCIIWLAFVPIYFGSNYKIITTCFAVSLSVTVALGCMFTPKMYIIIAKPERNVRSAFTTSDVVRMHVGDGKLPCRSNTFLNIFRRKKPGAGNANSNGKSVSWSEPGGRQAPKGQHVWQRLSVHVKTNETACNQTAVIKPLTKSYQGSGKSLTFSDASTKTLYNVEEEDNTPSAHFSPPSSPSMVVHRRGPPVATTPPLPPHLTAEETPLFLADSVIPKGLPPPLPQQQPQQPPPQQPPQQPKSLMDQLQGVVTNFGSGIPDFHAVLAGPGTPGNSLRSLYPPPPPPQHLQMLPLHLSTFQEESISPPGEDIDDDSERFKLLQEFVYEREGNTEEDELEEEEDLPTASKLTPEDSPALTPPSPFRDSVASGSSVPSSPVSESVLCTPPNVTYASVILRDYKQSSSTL

[4] = biological target: T2, Metabotropic glutamate receptor 5 (Rattus norvegicus, UniProt P31424); assay: Antagonistic activity against Metabotropic glutamate receptor 5 was determined at 1 mM; NE = No significant effect observed
T2 sequence (P31424 whole entry): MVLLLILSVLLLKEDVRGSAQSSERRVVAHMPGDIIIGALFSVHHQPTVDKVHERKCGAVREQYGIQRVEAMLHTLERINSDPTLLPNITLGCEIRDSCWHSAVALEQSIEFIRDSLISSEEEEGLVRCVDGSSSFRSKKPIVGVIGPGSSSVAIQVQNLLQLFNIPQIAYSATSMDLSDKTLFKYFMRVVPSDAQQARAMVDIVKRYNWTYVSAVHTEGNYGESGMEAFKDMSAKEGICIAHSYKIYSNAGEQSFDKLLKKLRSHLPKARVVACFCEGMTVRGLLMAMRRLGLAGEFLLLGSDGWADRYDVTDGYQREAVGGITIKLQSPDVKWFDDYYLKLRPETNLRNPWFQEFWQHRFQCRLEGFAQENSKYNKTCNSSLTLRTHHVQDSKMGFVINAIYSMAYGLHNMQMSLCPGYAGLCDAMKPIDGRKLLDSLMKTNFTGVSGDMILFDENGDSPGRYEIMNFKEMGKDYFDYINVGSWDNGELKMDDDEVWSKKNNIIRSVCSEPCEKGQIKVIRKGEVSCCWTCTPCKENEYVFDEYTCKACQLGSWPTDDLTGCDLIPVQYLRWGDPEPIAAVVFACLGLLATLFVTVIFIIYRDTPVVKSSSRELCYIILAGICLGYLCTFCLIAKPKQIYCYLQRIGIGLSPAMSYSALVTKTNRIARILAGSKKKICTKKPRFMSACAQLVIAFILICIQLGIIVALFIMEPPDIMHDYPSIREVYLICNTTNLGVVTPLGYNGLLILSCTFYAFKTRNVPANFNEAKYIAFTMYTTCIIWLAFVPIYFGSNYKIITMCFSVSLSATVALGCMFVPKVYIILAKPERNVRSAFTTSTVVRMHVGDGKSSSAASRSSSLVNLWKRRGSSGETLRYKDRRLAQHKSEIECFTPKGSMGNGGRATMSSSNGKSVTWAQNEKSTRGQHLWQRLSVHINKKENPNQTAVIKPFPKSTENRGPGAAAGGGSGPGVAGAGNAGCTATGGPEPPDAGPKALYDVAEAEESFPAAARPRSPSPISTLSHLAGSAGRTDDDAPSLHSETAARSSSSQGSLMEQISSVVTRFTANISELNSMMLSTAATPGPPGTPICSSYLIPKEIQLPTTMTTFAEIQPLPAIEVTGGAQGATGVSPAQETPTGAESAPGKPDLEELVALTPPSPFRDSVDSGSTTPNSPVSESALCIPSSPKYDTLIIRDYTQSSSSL

[5] = biological target: T1, Metabotropic glutamate receptor 1; assay: Antagonistic activity against Metabotropic glutamate receptor 1 was determined
[6] = biological target: T2, Metabotropic glutamate receptor 5; assay: Antagonistic activity against Metabotropic glutamate receptor 5 was determined

Chain of Metabotropic glutamate receptor 2 (P31421 whole entry): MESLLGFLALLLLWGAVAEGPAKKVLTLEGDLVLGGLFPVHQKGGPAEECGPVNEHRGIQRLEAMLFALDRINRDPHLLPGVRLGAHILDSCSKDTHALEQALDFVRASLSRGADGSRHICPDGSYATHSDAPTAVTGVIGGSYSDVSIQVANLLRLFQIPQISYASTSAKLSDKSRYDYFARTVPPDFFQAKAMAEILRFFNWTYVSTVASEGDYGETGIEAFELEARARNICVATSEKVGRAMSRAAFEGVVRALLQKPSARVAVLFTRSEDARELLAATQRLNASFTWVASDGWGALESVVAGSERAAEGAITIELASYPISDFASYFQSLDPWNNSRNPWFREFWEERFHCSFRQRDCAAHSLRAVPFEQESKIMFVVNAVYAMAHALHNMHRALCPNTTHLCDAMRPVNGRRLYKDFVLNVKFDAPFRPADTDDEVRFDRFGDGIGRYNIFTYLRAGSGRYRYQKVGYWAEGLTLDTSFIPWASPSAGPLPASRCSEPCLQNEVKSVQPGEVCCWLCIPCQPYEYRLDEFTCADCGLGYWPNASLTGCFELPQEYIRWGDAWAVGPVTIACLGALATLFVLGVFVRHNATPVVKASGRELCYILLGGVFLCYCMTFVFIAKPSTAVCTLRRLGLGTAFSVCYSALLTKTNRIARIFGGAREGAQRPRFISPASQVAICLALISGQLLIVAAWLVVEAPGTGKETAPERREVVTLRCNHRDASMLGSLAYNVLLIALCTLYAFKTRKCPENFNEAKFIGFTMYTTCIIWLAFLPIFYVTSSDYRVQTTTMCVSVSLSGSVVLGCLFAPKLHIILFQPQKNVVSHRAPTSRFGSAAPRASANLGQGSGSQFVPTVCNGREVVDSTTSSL

Row | IC50 [1] [µM] | IC50 [2] | IC50 [3] | IC50 [4] | IC50 [5] [µM] | IC50 [6] [µM] | SMILES
1 | 30 | No effect | No effect | No effect |  |  | NC1(C(=O)O)CCc2cc(P(=O)(O)O)ccc21 (stereo not drawn)
2 | 43 | No effect |  |  | 93 | 355 | CC1(C)CC(N)(C(=O)O)c2ccc(C(=O)O)cc2O1 (stereo not drawn)
